According to patent US20110130428A1, “Sublingual Compositions Comprising (2S) - (4E) -N-Methyl-5- (3- (5-Isopropoxypyridin) YL)-4-Penten-2-Amine” (ASTRAZENECA AB, priority 2008, published 2011):
Read-outs that look alike come from different tables or passages of the source.

Assays:
[1] = Solubility / Biopharmaceutical Classification System (BCS) class; format: physicochemical
Source text: (§1) Thus, the dissolution and intestinal permeability is not the reason for the observed high intersubject variability in plasma concentrations of Compound A.

[2] = Intestinal permeability (fraction of an oral dose absorbed); format: in vivo
Source text: as §1

[3] = test system: NNR subtypes that characterize the human ganglia; test: Nicotinic function in adrenal chromaffin tissue; format: cell-based; details: ganglionic NNR subtypes
Source text: (§2) It is advantageous that the treatment or prevention of diseases, disorders and conditions occurs without appreciable adverse side effects (e.g., significant increases in blood pressure and heart rate, significant negative effects upon the gastro-intestinal tract, and significant effects upon skeletal muscle). […] Thus, Compound A is capable of treating and/or preventing diseases, disorders and conditions without eliciting significant side effects associated with activity at ganglionic and neuromuscular sites.

[4] = test system: muscle-type NNRs; test: Nicotinic function in cell preparations expressing muscle-type NNRs; format: cell-based; details: skeletal muscle NNR
Source text: as §2

[5] = Beagle dogs, cited from earlier work
[6] = dose range 2 to 320 mg, healthy volunteers; cited from earlier work
[7] = Animal study: plasma pharmacokinetics of Compound A and metabolite Compound B after sublingual or oral administration of the Compound A solid composition; details: for Cmax, relative difference in exposure sublingual compared to oral / AUC, relative difference in exposure sublingual compared to oral: 100*sublingual value/oral value; for AUC, relative difference in exposure sublingual compared to oral: AUC for Compound A; for AUC(0-t) / AUC / Cmax / Tmax / half-life / concentration at 5 min: male, beagle, dog, plasma, 13 mg; for AUC(0-t): AUC (0-8 h); for AUC(0-t) / AUC / Cmax / Tmax / half-life: Example 6 tablet; for AUC: zero to infinity; for half-life: T½; for concentration at 5 min: plasma concentration at 5 minutes
Description: (§3) Two male Beagle dogs weighing 13-15 kg were used in the study. At one occasion the dogs were administered the sublingual composition under the tongue (i.e. as intended) and at the other occasion, after a washout period of 7 days, they were given the sublingual composition orally (i.e. into the stomach by gavage together with 40 ml of water).
(§4) The dogs were fasted overnight and until four hours after dose administration. Water was allowed ad lib until one hour before dosing and after three hours following dosing. To minimize the chance of swallowing during the sublingual study occasion, the dogs were anesthetized by intravenous bolus injection of Diprivan (10 mg/ml, AstraZeneca, Sweden) 0.8-1 ml/kg, followed by intubation, connection to a respiratory ventilator (Servo ventilator 900C, Siemens-Elema AB, Sweden) and capnograph (RespSense, MedAir AB, Sweden) and given additional anesthesia with 1.5% Isofluran (Isoba Vet., Schering-Plough AB, Sweden). The dogs were kept anesthetized for one hour after the administration of the sublingual composition under the tongue. The dogs were not anesthetized during the oral administration occasion.
(§5) Venous blood samples (2 mL) were collected before (0) and after 5, 15, 30, 45 minutes, 1.0, 1.5, 2.0, 3.0, 4.0, 6.0 and 8.0 hours after dosing. The samples were collected into vacuum tubes (BD Vacutainer K2-EDTA, Becton&Dickinson AB, Sweden), placed on ice and centrifuged for 10 minutes (4° C., 1500 g) within 30 minutes after sampling. The plasma was then transferred to 1.8 ml Nunc Cryo tubes (InterMed A/S, Denmark) and frozen (−20° C.) pending analysis.
(§6) The plasma samples (50 μL) were analyzed for Compound A and its metabolite Compound B by a standard LC-MS/MS analytical method. The determinations of the concentration of Compound A and Compound B in plasma was performed by liquid-liquid extraction followed by reversed-phase liquid chromatography and tandem mass spectrometry. Determinations of both Compound A and Compound B were performed in the range 0.8 to 200 nmol/L. Samples outside the range of determination were diluted up to 10 times. Quality control samples at three concentrations were interspersed with the study samples at 2.40, 16.0 and 160 nmol/L. The internal standard used in the assay was Deuterium labeled Compound A (AstraZeneca R&D, Sweden).
(§7) Exposure of animals to Compound A and it's metabolite Compound B expressed as area under the curve from time zero to the last sampling time, AUC(0-8 h), was obtained by means of non compartmental analysis in WinNonlin (version 4.0, Pharsight Corporation, USA). The maximum concentration, Cmax, and time of maximum concentration, Tmax, were direct observations from the plasma concentration versus time data. AUC(0-8 h) was calculated by means of the linear up-log down method. The area under the curve from zero to infinity, AUC, was calculated in a similar manner, with extrapolation from time of the last observed concentration, tlast, to infinity by adding the ratio of Cpred (predicted plasma concentration at tlast) and terminal slope factor. The terminal slope factor and subsequently the terminal half life (T1/2) were estimated in WinNonlin by log linear regression of the terminal phase (4 data points were used) of the plasma concentration time curve.

[8] = male, beagle, dog, in vivo, 13 mg
Description: as §3, §4, §5, §6, §7

[9] = in vivo; details: male, beagle, dog, 13 mg; for AUC(0-t): AUC (0-8 h)
Description: as §3, §4, §5, §6, §7

[10] = Sublingual, Subject 1, anesthetized dog, 13 mg Compound A
[11] = Sublingual, Subject 2, anesthetized dog, 13 mg Compound A
[12] = po, Oral (gavage), Subject 1, dog, 13 mg Compound A
[13] = po, Oral (gavage), Subject 2, dog, 13 mg Compound A

Compound: CN[C@@H](C)C/C=C/c1cncc(OC(C)C)c1 [Compound A, (2S)-(4E)-N-methyl-5-(3-(5-isopropoxypyridin)yl)-4-penten-2-amine]
- Biopharmaceutical Classification System (BCS) class [1]: Class I
- solubility ([1]; highest dose strength is easily dissolved in 250 ml of aqueous media at all physiological pH values): very good solubility
- intestinal permeability: oral dose absorbed [2]: more than 90%
- ability to elicit nicotinic function in adrenal chromaffin tissue [3]: lack of ability to elicit nicotinic function
- ability to elicit nicotinic function in cell preparations expressing muscle-type NNRs [4]: lack of ability to elicit nicotinic function
- oral bioavailability ([5]; oral): about 30%
- total plasma clearance relative to hepatic blood flow [5]: markedly higher than the hepatic blood flow
- degree of exposure after oral administration [6]: intersubject variability in the degree of exposure
- Cmax, relative difference in exposure sublingual compared to oral ([7]; Subject 1, dog): 740 % difference
- AUC, relative difference in exposure sublingual compared to oral ([7]; Subject 1, dog): 550 % difference
- Cmax, relative difference in exposure sublingual compared to oral ([7]; Subject 2, dog): 510 % difference
- AUC, relative difference in exposure sublingual compared to oral ([7]; Subject 2, dog): 520 % difference
- AUC(0-t) [7, 10]: 2 µM·h
- AUC(0-t) [7, 11]: 1.5 µM·h
- AUC [7, 10]: 2.1 µM·h
- AUC [7, 11]: 1.5 µM·h
- Cmax [7, 10]: 1400 nM
- Cmax [7, 11]: 610 nM
- Tmax [7, 10]: 0.5 h
- Tmax [7, 11]: 1 h
- half-life [7, 10]: 1.3 h
- half-life [7, 11]: 1.4 h
- concentration at 5 min ([7]; other: sublingual, 5 minutes after sublingual administration, Subject 1, dog): ~200 nM
- concentration at 5 min ([7]; other: sublingual, 5 minutes after sublingual administration, Subject 2, dog): ~60 nM
- AUC(0-t) [7, 12]: 0.37 µM·h
- AUC(0-t) [7, 13]: 0.28 µM·h
- AUC [7, 12]: 0.38 µM·h
- AUC [7, 13]: 0.29 µM·h
- Cmax [7, 12]: 190 nM
- Cmax [7, 13]: 120 nM
- Tmax ([7]; po, Oral (gavage), Subject 1, dog, 13 mg (as base) Compound A hydroxybenzoate salt): 0.75 h
- Tmax [7, 13]: 1 h
- half-life [7, 12]: 1.3 h
- half-life [7, 13]: 1.3 h
- concentration at 5 min ([7]; po, 5 minutes after oral administration, Subject 1, dog): ~2 nM
- concentration at 5 min ([7]; po, 5 minutes after oral administration, Subject 2, dog): ~1.5 nM

Compound: CC(C)Oc1cncc(/C=C/C[C@H](C)N)c1 [Compound B, (4E)-5-(3-(5-isopropoxypyridin)yl)-4-penten-2-amine]
- AUC (0-8 h) [8]: 0.59 µM·h
- Cmax [8]: 110 nM
- Tmax [8]: 6 h
- decrease of exposure (Cmax, AUC 0-8 h) following sublingual compared to oral administration of Compound A [8]: 30-70%
- AUC (0-8 h) ([8]; po): 1 µM·h
- Cmax ([8]; po): 230 nM
- Tmax ([8]; po): 1 h
- AUC(0-t) [9]: 0.51 µM·h
- Cmax [9]: 99 nM
- Tmax [9]: 4 h
- AUC(0-t) ([9]; po): 1 µM·h
- Cmax ([9]; po): 210 nM
- Tmax ([9]; po): 1.5 h
